The results in this text go back to US9376392B2, “2-(tert-butoxy)-2-(7-methylquinolin-6-yl) acetic acid derivatives for treating AIDS” (Gilead Sciences, Inc., priority 2012, dated 2016).

pEC50: −log10 of the molar value.

The first assay concerns HIV-IIIb (MT-4 cells). The assay is described as follows: Test A: Antiviral Assays in MT4 Cells. In kind it is cell-based. The note with it: MT4, 120 h, MT-4 cells infected with HIV-IIIb, 5 days of incubation, CellTiter-Glo readout. Here is the method: The antiviral properties of a compound disclosed herein may be determined using Test A described below.
Test A: Antiviral Assays in MT4 Cells
For the antiviral assay utilizing MT-4 cells, 0.4 μL of […] test concentration of 3-fold serially diluted compound in DMSO was added to 40 μL of cell growth medium (RPMI 1640, 10% FBS, 1% penicillin/Streptomycin, 1% L-Glutamine, 1% HEPES) in each well of 384-well assay plates (10 concentrations) in quadruplicate.
1 mL aliquots of 2×10e6 MT-4 cells are pre-infected for 1 and 3 hrs respectively, @ 37° C. with 25 μL (MT4) or of either cell growth medium (mock-infected) or a fresh 1:250 dilution of an HIV-IIIb concentrated ABI stock (0.004 m.o.i. for MT4 cells). Infected and uninfected cells are diluted in cell growth medium and 35 μL of 2000 (for MT4) cells is added to each well of the assay plates.
Assay plates were then incubated in a 37° C. incubator. After 5 days of incubation, […] 2× concentrated CellTiter-Glo™ Reagent (catalog #G7573, Promega Biosciences, Inc., Madison, Wis.) was added to each well of the assay plate. Cell lysis was carried out by incubating at room temperature for 2-3 min and then chemiluminescence was read using the Envision reader (PerkinElmer).
`CCCCCC(C)(C)O[C@H](C(=O)O)c1c(C)cc2nc(C)ccc2c1-c1ccc2c3c(ccnc13)CCO2` (atropisomer, axis not shown) [Example 43, (S)-2-((S)-5-(2,3-Dihydropyrano[4,3,2-de]quinolin-7-yl)-2,7-dimethylquinolin-6-yl)-2-(2-methylheptan-2-yloxy)acetic acid] had a pEC50 of 4.40.

In turn, `CNc1ccc2c(-c3ccc4c5c(ccnc35)CCO4)c([C@H](OC(C)(C)C)C(=O)O)c(C)cc2n1` (atropisomer, axis not shown) [Example 46, (S)-2-tert-Butoxy-2-((R)-5-(2,3-dihydropyrano[4,3,2-de]quinolin-7-yl)-7-methyl-2-(methylamino)quinolin-6-yl)acetic acid] showed a pEC50 of 6.58.

As for `Cc1cc2nc(N)ccc2c(-c2ccc3c4c(ccnc24)CCO3)c1[C@H](OC(C)(C)C)C(=O)O` (atropisomer, axis not shown) [Example 47, (S)-2-((R)-2-Amino-5-(2,3-dihydropyrano[4,3,2-de]quinolin-7-yl)-7-methylquinolin-6-yl)-2-tert-butoxyacetic acid], the pEC50 is 6.53.

For `CC(=O)Nc1ccc2c(-c3ccc4c5c(ccnc35)CCO4)c([C@H](OC(C)(C)C)C(=O)O)c(C)cc2n1` (atropisomer, axis not shown) [Example 48, (S)-2-((R)-2-Acetamido-5-(2,3-dihydropyrano[4,3,2-de]quinolin-7-yl)-7-methylquinolin-6-yl)-2-tert-butoxyacetic acid], the pEC50 is 6.44.

In the case of `Cc1cc2nc(NC(=O)c3ccccc3)ccc2c(-c2ccc3c4c(ccnc24)CCO3)c1[C@H](OC(C)(C)C)C(=O)O` (atropisomer, axis not shown) [Example 49, (S)-2-((R)-2-Benzamido-5-(2,3-dihydropyrano[4,3,2-de]quinolin-7-yl)-7-methylquinolin-6-yl)-2-tert-butoxyacetic acid], the pEC50 was 6.87.

Consider `Cc1cc2nc(C#N)ccc2c(-c2ccc3c4c(ccnc24)CCO3)c1[C@H](OC(C)(C)C)C(=O)O` (atropisomer, axis not shown) [Example 50, (S)-2-tert-Butoxy-2-((R)-2-cyano-5-(2,3-dihydropyrano[4,3,2-de]quinolin-7-yl)-7-methylquinolin-6-yl)acetic acid], for which the pEC50 was 6.78.

On to `Cc1cc2nc(C(C)(C)O)ccc2c(-c2ccc3c4c(ccnc24)CCO3)c1[C@H](OC(C)(C)C)C(=O)O` (atropisomer, axis not shown) [Example 51, (S)-2-tert-Butoxy-2-((R)-5-(2,3-dihydropyrano[4,3,2-de]quinolin-7-yl)-2-(2-hydroxypropan-2-yl)-7-methylquinolin-6-yl)acetic acid], for which the pEC50 was 6.73.

In turn, `Cc1cc2nc(C(C)(F)F)ccc2c(-c2ccc3c4c(ccnc24)CCO3)c1[C@H](OC(C)(C)C)C(=O)O` (atropisomer, axis not shown) [Example 52, (S)-2-tert-Butoxy-2-((R)-2-(1,1-difluoroethyl)-5-(2,3-dihydropyrano[4,3,2-de]quinolin-7-yl)-7-methylquinolin-6-yl)acetic acid] had a negative-log EC50 (pEC50) of 7.19. Against the preceding compound, the pEC50 is 0.46 log units higher.

Regarding `Cc1cc2c(ccc3cnnn32)c(-c2ccc3c4c(ccnc24)CCO3)c1[C@H](OC(C)(C)C)C(=O)O` (atropisomer, axis not shown) [Example 55, (S)-2-tert-butoxy-2-((R)-6-(2,3-dihydropyrano[4,3,2-de]quinolin-7-yl)-8-methyl-[1,2,3]triazolo[1,5-a]quinolin-7-yl)acetic acid], the pEC50 is 7.11.

Consider `Cc1cc2c(ccc(=O)n2Cc2cccc(S(C)(=O)=O)c2)c(-c2ccc(Cl)cc2)c1[C@H](OC(C)(C)C)C(=O)O` [Example 6, (S)-2-tert-Butoxy-2-(5-(4-chlorophenyl)-7-methyl-1-(3-(methylsulfonyl)benzyl)-2-oxo-1,2-dihydroquinolin-6-yl)acetic acid], for which the pEC50 is 6.54.

`Cc1cc2c(ccc(=O)n2Cc2cccc(C(F)(F)F)c2)c(-c2ccc(Cl)cc2)c1[C@H](OC(C)(C)C)C(=O)O` [Example 7, (S)-2-tert-Butoxy-2-(5-(4-chlorophenyl)-7-methyl-2-oxo-1-(3-(trifluoromethyl)benzyl)-1,2-dihydroquinolin-6-yl)acetic acid] showed a pEC50 of 6.73.

For the compound `Cc1cc2nc(C(C)F)ccc2c(-c2ccc3c4c(ccnc24)CCO3)c1[C@H](OC(C)(C)C)C(=O)O` (stereo partly drawn) [Example 53, (2S)-2-tert-Butoxy-2-((5R)-5-(2,3-dihydropyrano[4,3,2-de]quinolin-7-yl)-2-(1-fluoroethyl)-7-methylquinolin-6-yl)acetic acid], the negative logarithm of the EC50 (pEC50) is 7.66.

Staying with this assay, now noted: MT-4 cells infected with HIV-IIIb, 5 days of incubation, CellTiter-Glo readout.
`CCCC(C)(C)O[C@H](C(=O)O)c1c(C)cc2nc(C)ccc2c1-c1ccc2c3c(ccnc13)CCO2` (atropisomer, axis not shown) [Example 40, (2S)-2-((S)-5-(2,3-Dihydropyrano[4,3,2-de]quinolin-7-yl)-2,7-dimethylquinolin-6-yl)-2-(2-methylpentan-2-yloxy)acetic acid]: the pEC50 was 5.56.

For `CCC(C)(CC)O[C@H](C(=O)O)c1c(C)cc2nc(C)ccc2c1-c1ccc2c3c(ccnc13)CCO2` (atropisomer, axis not shown) [Example 41, (S)-2-((R)-5-(2,3-Dihydropyrano[4,3,2-de]quinolin-7-yl)-2,7-dimethylquinolin-6-yl)-2-(3-methylpentan-3-yloxy)acetic acid], the negative-log EC50 (pEC50) is 7.41.

In turn, `CCC(C)(CC)O[C@H](C(=O)O)c1c(C)cc2nc(C)ccc2c1-c1ccc2c3c(ccnc13)CCO2` (atropisomer, axis not shown) [Example 42, (S)-2-((S)-5-(2,3-Dihydropyrano[4,3,2-de]quinolin-7-yl)-2,7-dimethylquinolin-6-yl)-2-(3-methylpentan-3-yloxy)acetic acid] had a pEC50 of 5.25.

`CCC(C)(C)O[C@H](C(=O)O)c1c(C)cc2nc(C)ccc2c1-c1ccc2c3c(ccnc13)CCO2` (atropisomer, axis not shown) [Example 44, (S)-2-((R)-5-(2,3-Dihydropyrano[4,3,2-de]quinolin-7-yl)-2,7-dimethylquinolin-6-yl)-2-(tert-pentyloxy)acetic acid] gave a pEC50 of 7.93.

The compound `CCC(C)(C)O[C@H](C(=O)O)c1c(C)cc2nc(C)ccc2c1-c1ccc2c3c(ccnc13)CCO2` (atropisomer, axis not shown) [Example 45, (S)-2-((S)-5-(2,3-Dihydropyrano[4,3,2-de]quinolin-7-yl)-2,7-dimethylquinolin-6-yl)-2-(tert-pentyloxy)acetic acid] gave a pEC50 of 4.88.
